In PubChem BioAssay AID1963839 (Molecular Pharmacology Branch, DTP, NCI, 2024):

Test system: 817829-284-R-J1-PDC complex spheroid viability
Assay: Anticancer human tumor 817829-284-R-J1-PDC patient-derived colon adenocarcinoma cell line growth inhibition [POLQ]
Details: for IC50: curve of first compound; for viability, T/C: stronger effect = lower value
Protocol: Multicellular complex tumor spheroid response to Polymerase (POL) inhibitors (novobiocin, ART-558, RP6685) in combination with a variety of drugs and investigational agents in selected tumor cell lines
The POL inhibitors (novobiocin, ART-558, and RP6685) were evaluated both individually and in combination with standard of care and investigational anticancer small molecules within a complex spheroid model of solid tumors. . Complex spheroids include a stromal component modeled by human endothelial cells (HUVEC) and fibroblasts modeled by human mesenchymal stem cells (MSCs). The concentration ranges selected for each drug and investigational agent were based upon clinically achievable concentrations if the clinical Cmax of the agent was known.
Compounds. The drugs and investigational agents: novobiocin (NSC847541), ART-558 (NSC835418), RP-6685 (NSC848927), peposertib (NSC802822), ceralasertib (NSC780249), elimusertib (NSC800525), camonsertib (NSC841442), AZD-1390 (NSC803789), olaparib (NSC753686), talazoparib (NSC767125), rucaparib (NSC756644), sotorasib (NSC818433), MRTX-1133 (NSC836407), SN-38 (NSC673596), topotecan (NSC609699), epotoside (NSC141540), doxorubicin (NSC123127), gemcitabine (NSC613327), 5-fluorouracil (NSC19893), paclitaxel (NSC125973), vemurafenib (NSC761431), MSA-2 (NSC828583), SN-011 (NSC837082), adavosertib (NSC754352), prexasertib (NSC758257), carboplatin (NSC241240) and oxaliplatin (NSC266046), were obtained from the National Cancer Institute (NCI) Developmental Therapeutics Program Chemical Repository (21). The FDA-approved anticancer drug set is available from the Developmental Therapeutics Program at https://dtp.cancer.gov/organization/dscb/obtaining/. […] The stock solutions were prepared in dimethyl sulfoxide (DMSO, Sigma-Aldrich, St. Louis, MO, cat. D2650), except for the platinum compounds which were prepared in saline (Quality Biological, Gaithersburg, MD, cat. 114-055-101), at 800-fold the tested concentration and stored at -70 degrees C prior to their use. All drugs and investigational agents were tested over a range starting from a high concentration at or near the clinical Cmax and decreasing in half-log increments. If the clinical Cmax for an agent had not been determined, the highest concentration tested was 10 microM, except for SN-38, which was tested at a high concentration of 1 microM.
Cell Culture. All cells were maintained in an incubator at 37 degrees C and 5% CO2 with 95% humidity. The PDC lines were cultured according to standard operating procedures established by the NCI PDMR (https://pdmr.cancer.gov). Table 3 of the manuscript, lists the cell lines along with the number of the three cell types plated to form the mct-spheroids and media for tumor cell growth. After thawing, all PDC lines, except 997537-175-T-J1-PDC and 415267-285-R-J2-PDC, were cultured in Matrigel-coated flasks prepared with a working solution of 1X Ham's F-12 nutrient mix, without supplementation (Thermo Fisher Scientific, cat. 11765054), 100 U/mL penicillin-streptomycin (Thermo Fisher Scientific, cat. 15140122), and 2.5% Matrigel (Corning Inc., Corning, NY, cat. 354248) for the first three passages. The two PDC lines 997537-175-T-J1-PDC and 415267-285-R-J2-PDC were cultured on uncoated flasks. The 857933-349-R-J2-PDC line was cultured in 6C/Colon 1B media containing advanced DMEM/F-12 (Thermo Fisher Scientific, cat. 12634028), 10 mM HEPES (Thermo Fisher Scientific, cat. 15630080), 1X GlutaMAX supplement (Thermo Fisher Scientific, cat. 35050061), 0.1 mg/mL primocin (InvivoGen, San Diego, CA, cat. ant-pm-2), 10% defined fetal bovine serum, heat inactivated (HyClone Laboratories Inc., Logan, UT, cat. SH30070.03HI), 50% L-WRN conditioned media (ATCC, cat. CRL-3276), 1.25 mM N-Acetyl-L-cysteine (Sigma-Aldrich, cat. A9165), 10 mM nicotinamide (Sigma-Aldrich, cat. N0636), 1X B-27 supplement (Thermo Fisher Scientific, cat. 17504044), 1X N-2 supplement (Thermo Fisher Scientific, cat. […]

[1] = second compound 0.0316 µM, first compound 0.0316 µM
[2] = second compound 0.0316 µM, first compound 0.1 µM
[3] = second compound 0.0316 µM, first compound 0.316 µM
[4] = second compound 0.0316 µM, first compound 1 µM
[5] = second compound 0.0316 µM, first compound 3.16 µM
[6] = second compound 0.0316 µM, first compound 10 µM
[7] = second compound 0.1 µM, first compound 0.0316 µM
[8] = second compound 0.1 µM, first compound 0.1 µM
[9] = second compound 0.1 µM, first compound 0.316 µM
[10] = second compound 0.1 µM, first compound 1 µM
[11] = second compound 0.1 µM, first compound 3.16 µM
[12] = second compound 0.1 µM, first compound 10 µM
[13] = second compound 0.316 µM, first compound 0.0316 µM
[14] = second compound 0.316 µM, first compound 0.1 µM
[15] = second compound 0.316 µM, first compound 0.316 µM
[16] = second compound 0.316 µM, first compound 1 µM
[17] = second compound 0.316 µM, first compound 3.16 µM
[18] = second compound 0.316 µM, first compound 10 µM
[19] = second compound 1 µM, first compound 0.0316 µM
[20] = second compound 1 µM, first compound 0.1 µM
[21] = second compound 1 µM, first compound 0.316 µM
[22] = second compound 1 µM, first compound 1 µM
[23] = second compound 1 µM, first compound 3.16 µM
[24] = second compound 1 µM, first compound 10 µM
[25] = second compound 3.16 µM, first compound 0.0316 µM
[26] = second compound 3.16 µM, first compound 0.1 µM
[27] = second compound 3.16 µM, first compound 0.316 µM
[28] = second compound 3.16 µM, first compound 1 µM
[29] = second compound 3.16 µM, first compound 3.16 µM
[30] = second compound 3.16 µM, first compound 10 µM
[31] = second compound 10 µM, first compound 0.0316 µM
[32] = second compound 10 µM, first compound 0.1 µM
[33] = second compound 10 µM, first compound 0.316 µM
[34] = second compound 10 µM, first compound 1 µM
[35] = second compound 10 µM, first compound 3.16 µM
[36] = second compound 10 µM, first compound 10 µM
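Further: spheroids exposed to compounds for 7 days.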
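Wherever viability, T/C is given: 100% = DMSO vehicle-treated spheroids.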

`O=C(Nc1ccc(O)c(NS(=O)(=O)c2ccc(F)cc2)c1)c1ccc(-c2ccccc2)cc1` + Nc1ccc(C#CCN(C(=O)Cc2ncc(C(F)(F)F)cc2C(F)(F)F)c2ccc(F)cc2)nn1 gave an IC50 (second compound 0.0316 µM) of 6.53 µM, an IC50 (second compound 0.1 µM) of 7.12 µM and an IC50 (second compound 0.316 µM) of 6.8 µM. For the same molecule, the IC50 (second compound 1 µM) was 7.73 µM, the IC50 (second compound 3.16 µM) was 7.08 µM and the IC50 (second compound 10 µM) was 6.95 µM. For the same molecule, the viability, T/C [1] was 109%, the viability, T/C [2] was 94.8% and the viability, T/C [3] was 107%. For the same molecule, the viability, T/C [4] was 101%, the viability, T/C [5] was 70.2% and the viability, T/C [6] was 38.1%. For the same molecule, the viability, T/C [7] was 103%, the viability, T/C [8] was 110% and the viability, T/C [9] was 90.6%. The viability, T/C [10] was 102%, the viability, T/C [11] was 74.7% and the viability, T/C [12] was 39.7%. It also gave a viability, T/C [13] of 113%, a viability, T/C [14] of 105% and a viability, T/C [15] of 105%. It also gave a viability, T/C [16] of 107%, a viability, T/C [17] of 76.9% and a viability, T/C [18] of 36.5%. It also gave a viability, T/C [19] of 113%, a viability, T/C [20] of 102% and a viability, T/C [21] of 100%. The viability, T/C [22] was 98.2%, the viability, T/C [23] was 86.6% and the viability, T/C [24] was 39.5%. For the same molecule, the viability, T/C [25] was 100%, the viability, T/C [26] was 98.5% and the viability, T/C [27] was 119%. The viability, T/C [28] was 96.2%, the viability, T/C [29] was 88% and the viability, T/C [30] was 34.1%. For the same molecule, the viability, T/C [31] was 103%, the viability, T/C [32] was 88.9% and the viability, T/C [33] was 113%. For the same molecule, the viability, T/C [34] was 97.2%, the viability, T/C [35] was 85.3% and the viability, T/C [36] was 33.8%.

`O=C(Nc1ccc(O)c(NS(=O)(=O)c2ccc(F)cc2)c1)c1ccc(-c2ccccc2)cc1` + COC1C(OC(N)=O)C(O)C(Oc2ccc3c(O)c(NC(=O)c4ccc(O)c(CC=C(C)C)c4)c(=O)oc3c2C)OC1(C)C gave an IC50 (second compound 0.0316 µM) of 7.82 µM, an IC50 (second compound 0.1 µM) of 7.15 µM and an IC50 (second compound 0.316 µM) of 5.73 µM. The IC50 (second compound 1 µM) was 6.35 µM, the IC50 (second compound 3.16 µM) was 6.53 µM and the IC50 (second compound 10 µM) was 7.4 µM. The viability, T/C [1] was 114%, the viability, T/C [2] was 68.6% and the viability, T/C [3] was 95.2%. The viability, T/C [4] was 72.2%, the viability, T/C [5] was 72.9% and the viability, T/C [6] was 38.4%. For the same molecule, the viability, T/C [7] was 74.9%, the viability, T/C [8] was 108% and the viability, T/C [9] was 79.2%. It also gave a viability, T/C [10] of 101%, a viability, T/C [11] of 84% and a viability, T/C [12] of 36%. It also gave a viability, T/C [13] of 91.5%, a viability, T/C [14] of 106% and a viability, T/C [15] of 90.4%. It also gave a viability, T/C [16] of 87.7%, a viability, T/C [17] of 68.9% and a viability, T/C [18] of 32.4%. The viability, T/C [19] was 100%, the viability, T/C [20] was 84.8% and the viability, T/C [21] was 107%. It also gave a viability, T/C [22] of 84.7%, a viability, T/C [23] of 66.6% and a viability, T/C [24] of 39.6%. The viability, T/C [25] was 91.9%, the viability, T/C [26] was 100% and the viability, T/C [27] was 103%. It also gave a viability, T/C [28] of 103%, a viability, T/C [29] of 68.5% and a viability, T/C [30] of 39.1%. The viability, T/C [31] was 82.8%, the viability, T/C [32] was 109% and the viability, T/C [33] was 99.6%. It also gave a viability, T/C [34] of 109%, a viability, T/C [35] of 66.7% and a viability, T/C [36] of 44.1%.
